Consider eleven molecules from US11319286B2, “Heterocyclic compound and application thereof” (Takeda Pharmaceutical Company Limited, priority 2017, dated 2022).

The target of the assay is T1, human orexin type 2 receptor (hOX2R) (Homo sapiens, UniProt O43614).
T1 construct: expressed in transfected cells
T1 sequence (O43614 1-444): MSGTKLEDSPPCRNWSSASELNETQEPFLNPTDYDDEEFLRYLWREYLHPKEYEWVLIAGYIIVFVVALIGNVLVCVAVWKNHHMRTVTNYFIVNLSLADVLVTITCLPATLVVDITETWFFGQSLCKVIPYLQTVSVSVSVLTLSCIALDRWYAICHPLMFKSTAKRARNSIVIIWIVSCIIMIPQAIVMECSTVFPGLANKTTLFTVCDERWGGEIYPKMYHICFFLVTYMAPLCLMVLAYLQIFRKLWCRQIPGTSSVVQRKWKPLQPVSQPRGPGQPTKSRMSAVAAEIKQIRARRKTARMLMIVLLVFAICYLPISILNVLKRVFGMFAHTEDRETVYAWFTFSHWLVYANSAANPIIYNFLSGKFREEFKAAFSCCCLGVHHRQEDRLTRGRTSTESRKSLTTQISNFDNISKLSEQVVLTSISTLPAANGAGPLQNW
As to the kind of experiment: Measurement of orexin type 2 receptor agonist activity (calcium fluorescence, Fluo-4 AM, FDSS). It counts as cell-based. The following applies: CHO cells forcibly expressing human OX2 receptor; 100% = orexin A (human) 10 nM, 0% = DMSO. An excerpt:
To obtain a cell clone stably expressing human orexin type 2 receptor, human orexin type 2 receptor cDNA was inserted into pcDNA3.1(+) plasmid vector (Invitrogen), and a plasmid DNA for expression of human orexin type 2 receptor (pcDNA3.1(+)/hOX2R) was cloned. The plasmid DNA was introduced into CHO-dhfr cell by an electroporation method, and human orexin type 2 receptor expressing clone cells were obtained by limiting dilution method by using G418 drug resistance as a selection marker.
CHO cells forcibly expressing human OX2 receptor were seeded in each well of 384 well black transparent bottom plate (BD Falcon) at 7,500 cells/well, and cultured for one day in a 5% CO2 incubator at 37° C. After removal of the medium in the cell plate, assay buffer A containing a calcium indicator (HBSS (Thermo Fisher Scientific), 20 mM HEPES (Thermo Fisher Scientific), 0.1% BSA (Wako Pure Chemical Industries, Ltd. or Sigma-Aldrich), 2.5 μg/mL Fluo-4 AM (DOJINDO Chemical), 0.08% Pluronic F127 (DOJINDO Chemical), 1.25 mM probenecid (DOJINDO Chemical)) was added at 30 μL/well. The plate was stood for 30 min in a 5% CO2 incubator at 37° C., and further stood at room temperature for 30 min. A test compound prepared by diluting with assay buffer B (HBSS, 20 mM HEPES, 0.1% BSA) was added at 10 μL/well, and the fluorescence value was measured by FDSSμCELL (Hamamatsu Photonics K.K.) every one sec for 1 min, and thereafter every two sec for 1 min 40 sec. The activity (%) of the test compound was calculated assuming that variation in the fluorescence value when DMSO was added instead of the test compound was 0%, and variation in the fluorescence value when orexin A (human) (PEPTIDE INSTITUTE, INC.) was added at the final concentration of 10 nM was 100%. Unless otherwise specified, the maximum agonist activity of each compound was 90% or more, when the maximum agonist activity of orexin A was considered as 100%.
Consider `CN(C)C(=O)N1CC[C@H](NS(C)(=O)=O)[C@@H]1COC1CCN(c2ncc(F)cn2)CC1` (relative stereo) [Example 11, cis-2-(((1-(5-fluoropyrimidin-2-yl)piperidin-4-yl)oxy)methyl)-3-((methanesulfonyl)amino)-N,N-dimethylpyrrolidine-1-carboxamide], for which the concentration for a half-maximal effect (EC50) worked out at 82 nM.
The value for `CS(=O)(=O)N[C@H]1CCN[C@H]1CO[C@H]1CC[C@@H](c2ccccc2)CC1` (relative stereo) [Example 2, N-(cis-2-(((cis-4-phenylcyclohexyl)oxy)methyl)pyrrolidin-3-yl)methanesulfonamide] was 3600 nM; that for `CS(=O)(=O)N[C@H]1CCN(C(=O)N2CCC2)[C@H]1CO[C@H]1CC[C@@H](c2ccccc2)CC1` (relative stereo) [Example 6, N-(cis-1-(azetidin-1-ylcarbonyl)-2-(((cis-4-phenylcyclohexyl)oxy)methyl)pyrrolidin-3-yl)methanesulfonamide] was 17 nM; that for `COC(=O)N1CC[C@H](NS(C)(=O)=O)[C@@H]1CO[C@H]1CC[C@@H](c2ccccc2)CC1` (relative stereo) [Example 1, methyl cis-3-((methylsulfonyl)amino)-2-(((cis-4-phenylcyclohexyl)oxy)methyl)pyrrolidine-1-carboxylate] was 130 nM.
For the molecule `CN(C)C(=O)N1CC[C@H](NS(C)(=O)=O)[C@@H]1CO[C@H]1CC[C@@H](c2ccccc2C(F)(F)F)CC1` (relative stereo) [Example 9, cis-3-((methanesulfonyl)amino)-N,N-dimethyl-2-(((cis-4-(2-(trifluoromethyl)phenyl)cyclohexyl)oxy)methyl)pyrrolidine-1-carboxamide], the EC50 amounted to 270 nM.
In the case of `CS(=O)(=O)N[C@H]1CCN(C(=O)C2CCC2)[C@H]1CO[C@H]1CC[C@@H](c2ccccc2)CC1` (relative stereo) [Example 7, N-(cis-1-(cyclobutylcarbonyl)-2-(((cis-4-phenylcyclohexyl)oxy)methyl)pyrrolidin-3-yl)methanesulfonamide], the EC50 was found to be 40 nM.
For the molecule `CN(C)C(=O)N1CC[C@H](NS(C)(=O)=O)[C@@H]1CO[C@H]1CC[C@@H](c2ccccc2)CC1` (relative stereo) [Example 8, cis-N,N-dimethyl-3-((methylsulfonyl)amino)-2-(((cis-4-phenylcyclohexyl)oxy)methyl)pyrrolidine-1-carboxamide], the EC50 amounted to 13 nM.
The value for `CCOC(=O)N1CC[C@H](NS(C)(=O)=O)[C@@H]1CO[C@H]1CC[C@@H](c2ccccc2)CC1` (relative stereo) [Example 3, ethyl cis-3-((methylsulfonyl)amino)-2-(((cis-4-phenylcyclohexyl)oxy)methyl) pyrrolidine-1-carboxylate] was 240 nM.
The value for `CS(=O)(=O)N[C@H]1CCN(C(=O)CC(F)(F)F)[C@H]1CO[C@H]1CC[C@@H](c2ccccc2)CC1` (relative stereo) [Example 5, N-(cis-2-(((cis-4-phenylcyclohexyl)oxy)methyl)-1-(3,3,3-trifluoropropanoyl)pyrrolidin-3-yl)methanesulfonamide] was 760 nM; that for `CS(=O)(=O)N[C@H]1CCN(C(=O)C2CC2)[C@H]1CO[C@H]1CC[C@@H](c2ccccc2)CC1` (relative stereo) [Example 4, N-(cis-1-(cyclopropylcarbonyl)-2-(((cis-4-phenylcyclohexyl)oxy)methyl)pyrrolidin-3-yl)methanesulfonamide] was 47 nM; that for `CC(C)(O)C(=O)N1CC[C@H](NS(C)(=O)=O)[C@@H]1CO[C@H]1CC[C@@H](c2ccccc2)CC1` (relative stereo) [Example 10, N-(cis-1-(2-hydroxy-2-methylpropanoyl)-2-(((cis-4-phenylcyclohexyl)oxy)methyl)pyrrolidin-3-yl)methanesulfonamide] was 410 nM.

As a reminder, the EC50 is the concentration at which the effect is half-maximal.
